This note sets out measurements from patent US20100105688A1, “PHARMACEUTICAL COMPOSITIONS COMPRISING 3,5-DIAMINO-6-(2,3-DICHLOPHENYL)-1,2,4-TRIAZINE OR R(-)-2,4-DIAMINO-5-(2,3-DICHLOROPHENYL)-6-FLUOROMETHYL PYRIMIDINE AND AN NK1” (GLAXO GROUP LIMITED, priority 2007, published 2010).

Structures are written as SMILES. Read-outs that look alike come from different tables or passages of the source.

One data set relates to Male CD rats. Kind of data set: Rat MEST model (seizure threshold, CC50). The format is in vivo. Here is the method: This work was conducted in compliance with the Home Office Guidance on the operation of the Animals (Scientific Procedures) Act 1986 and GlaxoSmithKline ethical standards. Male CD rats (100-145 g) were supplied by Charles River, UK. Animals were group housed (6 animal per cage) with free access to food (Standard rodent chow; Harlan, UK) and water under a 12 h light/dark cycle (lights on at 0700 h). A period of at least one week between arrival at GSK and the study was allowed in all cases.
Animals were administered a test compound at the appropriate dose, route and pre-treatment time and returned to their home cage. Testing occurred in a separate room from that used for housing. Testing involved determining the threshold for tonic hindlimb extensor seizures using a Hugo Sachs Electronik stimulator which delivers a constant current of 0.3 second duration, 50 Hz, sinewave form, fully adjustable between 1 and 300 mA. Stimuli were delivered via corneal electrodes (Stean T O, Atkins A R, Heidbreder C A, Quinn L P, Trail B K, Upton N. (2005) Br J. Pharmacol. 144(5):628-35). Seizure threshold was determined using the ‘up and down’ method of Kimball et al. (1957)(Kimball A W, Burnett W T Jr, Doherty D G. (1957) Radiat Res. 7(1):1-12). The first animal tested in each group was stimulated with a current that might be expected to be close to the threshold for induction of a seizure. If a tonic seizure was not induced, then next animal in the group received a stimulus 5 mA higher. If a tonic seizure was induced, then the next animal received a stimulus 5 mA lower. This is repeated for all animals within the control (vehicle) group. In the case of groups treated with a sodium channel blocker steps of 10 to 30 mA were used.
(§1) All doses were calculated as base. ENa9 and ENa13 were dosed via the subcutaneous (s.c.) route at 1 ml/kg in a 2% v/v DMSO/saline vehicle 30 minutes prior to test. ENa7 and ENa14 were dosed orally (p.o.) in a 1% w/v methylcellulose/water vehicle at 2 ml/kg, 60 minutes before test. Compound ENK6 was dosed with via the intraperitoneal (i.p.) route 60 minutes before the test or via the s.c. route 15 minutes before test. In both cases ENK6 was dissolved in saline.
Induction of seizure is measured as an all-or-nothing effect scored as either present (+) or absent (0) for each animal. The data for each treatment group were recorded as the number of +'s and 0's at each current level employed and this information was then used to calculate the CC50 value (current required for 50% of animals to show seizure behaviour)+standard error of the mean according to the method of Kimball et al. (1957). Drug effects were calculated as the % change in CC50. Significant differences between drug-treated animals and appropriate vehicle treated groups were assessed according to the methods of Litchfield and Wilcoxon (1949). The statistical significance of differences between sodium channel blocker alone or in combination with ENK6 was assessed using a Student's t test.

A short description of data set [1]: Blood and brain concentrations in satellite animals of the MEST study. Format: in vivo, rat. Conditions: satellite rats; for concentration at 15 min / concentration at 30 min: rat, sc; for change of blood or brain concentration of the sodium channel blocker in the presence of ENK6: ENK6 30 mg/kg i.p. Here is the method: Satellite animals (n=3/group) received the same drugs or combinations of drugs as the test groups, and were culled at the appropriate time after dosing. Blood and brain samples were taken for analysis of the drug concentrations in these compartments.
as §1

The next data set relates to rats. Kind of data set: FCA (Freunds Complete Adjuvant) model of inflammatory hypersensitivity to pain (weight bearing). The format is in vivo, rat. Here is the method: • Naïve weight bearing readings were taken. The hypersensitivity to pain was measured using the Rat incapacitance tester (Linton instruments). This instrument is serviced once a year and should be regularly calibrated • All rats then received an intraplantar injection of 100 ul of FCA (Freund's complete adjuvant) into the left hind paw. The FCA was sonicated for 15 minutes prior to use. • Approximately 23 hrs after administration of the FCA, pre-dose weight bearing readings were taken. All animals were then ranked and randomised for dosing according to their FCA window (predose difference in grams−naïve difference in grams). […] Celebrex 10 mg/kg p.o. (positive control) as appropriate according to ranking and randomisation. • Animals were assessed in the weight bearing apparatus 1 hour post dose. • The study was blind and randomised by FCA window using the Latin square method. • % reversals were calculated by using the naïve, pre-dose and post dose values as follows: % Reversal=[(Pre-dose−Post-dose)/(Pre-dose−Naïve)]×100 • Graphs and ED50 were calculated where appropriate using Prism4. • Statistical analysis was carried out using ANOVA followed by calculating the least square means using the statistical package Statistica 6.1 • From the dose response curves the ED20 was determined for the combination study • Naïve weight bearing readings were taken. The hypersensitivity to pain was measured using the Rat incapacitance tester (Linton instruments). This instrument is serviced once a year and should be regularly calibrated • All rats then received an intraplantar injection of 100 ul of FCA (Freund's complete adjuvant) into the left hind paw. The FCA was sonicated for 15 minutes prior to use. • Approximately 23 hrs after administration of the FCA, pre-dose weight bearing readings were taken. All animals were then ranked and randomised for dosing according to their FCA window (predose difference in grams−naïve difference in grams). […] See table 5 for details of the groups • Animals were assessed in the weight bearing apparatus 1 hour post dose. • The study was blind and randomised by FCA window using the Latin square method. • % reversals were calculated by using the naïve, pre-dose and post dose values as follows: % Reversal=[(Pre-dose−Post-dose)/(Pre-dose−Naïve)]×100 • Statistical analysis was carried out using ANOVA followed by calculating the least square means using the statistical package Statistica 6.1 • ED50 and ED20 values and graphs were calculated using prism5 • Naïve weight bearing readings were taken. The hypersensitivity to pain was measured using the Rat incapacitance tester (Linton instruments). This instrument is serviced once a year and should be regularly calibrated • All rats then received an intraplantar injection of 100 ul of FCA (Freund's complete adjuvant) into the left hind paw. The FCA was sonicated for 15 minutes prior to use. • Approximately 23 hrs after administration of the FCA, pre-dose weight bearing readings were taken. All animals were then ranked and randomised for dosing according to their FCA window (predose difference in grams—naïve difference in grams). Rats with FCA window less than 30 g were excluded from the study. • Animals were then dosed with the following in a fixed dose ratio of 1.25:1 according to ranking and randomisation. (Table 6) […] Graphs and ED50 were calculated where appropriate using Prism5 • Statistical analysis was carried out using ANOVA followed by calculating the least square means using the statistical package Statistica 6.1

Setting [2] is: ENK6 10 mg/kg s.c. + ENa7 1 mg/kg p.o., n = 2-3.
[3] abbreviates: ENK6 10 mg/kg s.c. + ENa7 3 mg/kg p.o., n = 2-3.
Setting [4] is: ENK6 30 mg/kg s.c. + ENa7 1 mg/kg p.o., n = 2.
Setting [5] is: ENK6 30 mg/kg s.c. + ENa7 3 mg/kg p.o., n = 2.
Setting [6] is: sodium channel blocker 1 mg/kg s.c. in the presence of ENK6 (30 mg/kg i.p.).
The mark [7] stands for this setting: sodium channel blocker 3 mg/kg s.c. in the presence of ENK6 (30 mg/kg i.p.).
Setting [8] is: sodium channel blocker alone, 1 mg/kg s.c., 30 minutes prior to test.
Setting [9] is: sodium channel blocker alone, 3 mg/kg s.c., 30 minutes prior to test.
Where [10] appears, read: ENK6 30 mg/kg i.p. + ENa13 1 mg/kg s.c., n = 2.
Setting [11] is: ENK6 30 mg/kg i.p. + ENa13 3 mg/kg s.c., n = 2.

For `COc1ccc(-n2nnnc2C(F)(F)F)cc1CN[C@H]1CCCN[C@H]1c1ccccc1.Cl.Cl` [ENK6, [2-Methoxy-5-(5-trifluoromethyl-tetrazol-1-yl)-benzyl]-([2S,3S]-2-phenyl-piperidin-3-yl)-amine dihydrochloride], the “effect on seizure threshold” value in the data set with Male CD rats (ENK6 alone, 10 mg/kg s.c., 15 minutes before testing (first experiment)) is “no effect on seizure threshold”; in the data set with Male CD rats (ENK6 alone, 30 mg/kg i.p., 60 minutes before the test), “no effect on seizure threshold”; with Male CD rats (ENK6 alone, 30 mg/kg s.c., 15 minutes before testing), “no effect on seizure threshold”. Further, the concentration at 15 min in data set [1] (blood, 10 mg/kg, ENK6 10 mg/kg s.c. + ENa7 veh, n = 2-3, read-out: Blood concentration) turned out to be 839 ng/mL; in data set [1] (blood, 30 mg/kg, ENK6 30 mg/kg s.c. + ENa7 veh, n = 2, read-out: Blood concentration), 1890 ng/mL; in data set [1] (brain, 10 mg/kg, ENK6 10 mg/kg s.c. + ENa7 veh, n = 2-3, read-out: Brain concentration), 1420 ng/g; in data set [1] (brain, 30 mg/kg, ENK6 30 mg/kg s.c. + ENa7 veh, n = 2, read-out: Brain concentration), 4500 ng/g. Moreover, the Blood concentration in data set [1] (setting [2]) came out at 635 ng/mL; in data set [1] (setting [3]), 732 ng/mL; in data set [1] (setting [4]) it was 1542 ng/mL; in data set [1] (setting [5]), 1481 ng/mL. The Brain concentration was determined as 1254 ng/g in data set [1] (setting [2]), 1504 ng/g in data set [1] (setting [3]), 3343 ng/g in data set [1] (setting [4]) and 2484 ng/g in data set [1] (setting [5]). Further, the 50% effective dose (ED50) in the data set on rats (Rattus norvegicus, po, compound alone, 0.1-3.0 mg/kg p.o. as printed, 1 hour post dose, range in brackets as printed, read-out: ED50, reversal of the FCA induced hypersensitivity) is 0.4 mg/kg. For the same molecule, the “reversal of the FCA induced hypersensitivity” value in the data set with rats (compound alone, 0.1-3.0 mg/kg, 1 hour post dose) was “dose related reversal”. For the same molecule, the “ED20, reversal of the FCA induced hypersensitivity” value in the data set on rats (compound alone, p.o. as printed, from the dose response curve) is listed as 0.08 mg/kg; in the data set with rats (compound alone, s.c. (summary of results)) it was “approx 0.08 mg/kg”. Also, the “effect on the FCA induced hypersensitivity” value in the data set with rats (each compound alone at its ED20 dose (ENa7 0.1 mg/kg p.o.; ENK6 0.08 mg/kg s.c.)) is “no significant effect”.

Consider `Cl.NC(=O)[C@@H]1CC[C@H](c2ccc(OCc3ccccc3F)cc2)N1` [ENa9, (5R)-5-(4-{[(2-fluorophenyl)methyl]oxy}phenyl)-L-prolinamide hydrochloride], for which the “increase in CC50 (mA)” value with Male CD rats (setting [6]) is 133%; in the data set with Male CD rats (setting [7]), 323%. Also, the “effect on seizure threshold” value is “inactive” with Male CD rats (setting [8]) and “small, but significant increase in seizure threshold” in the data set on Male CD rats (setting [9]). Also, in data set [1], the “change of blood or brain concentration of the sodium channel blocker in the presence of ENK6” value is “No increase”.

As for `CN1CC[C@]2(CC[C@H](c3ccc(OCc4ccccc4F)cc3)N2)C1=O.Cl` [ENa13, (2R,5R)-2-(4-{[(2-Fluorophenyl)methyl]oxy}phenyl)-7-methyl-1,7-diazaspiro[4.4]nonan-6-one hydrochloride], the “increase in CC50 (mA)” value was determined as 118% in the data set with Male CD rats (setting [6]) and 129% in the data set on Male CD rats (setting [7]). Moreover, the “effect on seizure threshold” value in the data set on Male CD rats (setting [8]) was “inactive”; in the data set with Male CD rats (setting [9]), “robust and significant increase in seizure threshold”. Also, the concentration at 30 min was 499 ng/mL in data set [1] (blood, 1 mg/kg, ENK6 veh + ENa13 1 mg/kg s.c., n = 2, read-out: Blood concentration); 1820 ng/mL in data set [1] (blood, 3 mg/kg, ENK6 veh + ENa13 3 mg/kg s.c., n = 2, read-out: Blood concentration); 478 ng/g in data set [1] (brain, 1 mg/kg, ENK6 veh + ENa13 1 mg/kg s.c., n = 2, read-out: Brain concentration); 1820 ng/g in data set [1] (brain, 3 mg/kg, ENK6 veh + ENa13 3 mg/kg s.c., n = 2, read-out: Brain concentration). The “change of blood or brain concentration of the sodium channel blocker in the presence of ENK6” value in data set [1] is recorded as “No increase”. In addition, the values for the Blood concentration in data set [1] (setting [10]) and in data set [1] (setting [11]) were 416 ng/mL and 1160 ng/mL, respectively. Moreover, the Brain concentration in data set [1] (setting [10]) turned out to be 508 ng/g; in data set [1] (setting [11]), 1235 ng/g.

Consider `Nc1nc(N)c(-c2cccc(Cl)c2Cl)c(CF)n1` [ENa15, R(−)-2,4-diamino-5-(2,3-dichlorophenyl)-6-fluoromethyl pyrimidine methanesulphonate], for which the “increase in CC50 (mA)” value in the data set on Male CD rats (sodium channel blocker 0.3 mg/kg p.o. in the presence of ENK6 30 mg/kg s.c.) came out at 176%; with Male CD rats (sodium channel blocker 1 mg/kg p.o. in the presence of ENK6 30 mg/kg s.c.) it was 51%. Also, the “effect on seizure threshold” value in the data set with Male CD rats (sodium channel blocker alone, 0.3 mg/kg p.o., 60 minutes before the test) is on record as “no increase in seizure threshold”. Also, the “increase in seizure threshold” value with Male CD rats (sodium channel blocker alone, 1 mg/kg p.o., 60 minutes before the test) was found to be 292%.

The ED50 is the dose that gives a 50% effect, or the effect in half of the subjects.
